{"source": "patent US11932870B2", "about": "“Compositions and methods for immune cell modulation in adoptive immunotherapies” (Fate Therapeutics, Inc., priority 2016, dated 2024)", "system": "Nalm-6-luc tumor cells", "assay": "In vivo tumor clearance by compound-treated CD19 CAR-T cells", "conditions": "NSG mice with Nalm-6-luc; 2.0×10^5 cryopreserved compound-treated CAR-T cells per animal (1:1 CD4:CD8); imaging; FIGS. 7 and 8", "experimental": "NSG mice were injected with Nalm-6-luc, a CD19+ human tumor line engineered to express firefly luciferase. CAR-T cells were generated from CD4+ and CD8+ T cells that were separately activated and expanded in vitro. The cells were transduced with the CAR-2 construct (FIG. 2) one day after activation and then replated into 24-well GREX plates with or without the compounds. Half the media was replaced every two days thereafter until harvest one week post-activation. Cells were cryopreserved and then thawed for use. NSG mice were infused with tumor cells followed […] by CAR-T transfer via retroorbital injection. Four days after IV. injection with Nalm-6-luc cells, mice were treated with 2.0×10^5 CAR-T cells per animal (1:1 CD4:CD8). The mice were imaged periodically to determine tumor burden.", "note": "Entries after “also recorded” stand apart in the source; their conditions may differ."}
{"smiles": "CNC(=O)c1cc(Oc2ccc(NC(=O)Nc3cc(C(C)(C)C)nn3-c3ccc4ncccc4c3)c(F)c2)ccn1", "note": "[DCC-2036, Rebastinib]", "values": [{"measurement": "tumor burden / tumor control", "value": "dramatically reduced tumor burden; also recorded: able to clear tumor from the majority of mice"}]}
